This note sets out measurements from PubChem BioAssay AID2060627 (Molecular Pharmacology Branch, DTP, NCI, 2025).

Each structure is given as a SMILES string. Several values for one entry are separate records, joined by “and”; a condition that tells them apart may be missing. Identical values can stand only once.

By viability, T/C is commonly meant the result in the treated group divided by that in the control group, in per cent. The term IC50 denotes the midpoint of a concentration-inhibition curve.

For the test, the system named is 156681-154-R-J1-PDC complex spheroid viability. Briefly: Anticancer human tumor 156681-154-R-J1-PDC patient-derived melanoma cell line growth inhibition [CLK]. As to conditions: for viability, T/C: stronger effect = lower value. The source says:
A high-throughput screen of multi-cell type tumor spheroids was designed to identify active combinations of […] and targeted small molecules. Complex spheroids include a stromal component modeled by human endothelial cells (HUVEC) and fibroblasts modeled by human mesenchymal stem cells (MSCs). The concentration ranges selected for each drug and investigational agent were based upon clinically achievable concentrations if the clinical Cmax of the agent was known.
Compounds. The drugs and investigational agents: cirtuvivint (SM08502; NSC835563), CC-671 (NSC850746), vemurafenib (NSC761431), tapotoclax (NSC804041), sotorasib (NSC818433), adagrasib (NSC831453), MRTX-1133 (NSC836407), BAY2416964 (NSC825713), copanlisib (NSC816437), inavolisib (NSC800729), abemaciclib (NSC768073), osimertinib (NSC779217), entinostat (NSC756642), eltanexor (KPT-8602, NSC794443), venetoclax (NSC766270), ceralasertib (NSC777638), bortezomib (NSC756655), olaparib (NSC753686), talazoparib (NSC767125), alisertib (NSC759677), peposertib (NSC802822), gemcitabine (NSC613327), 5-fluorouracil (NSC19893), SN-38 (NSC673596), oxaliplatin (NSC266046), paclitaxel (NSC125973), and doxorubicin (NSC123127), were obtained from the National Cancer Institute (NCI) Developmental Therapeutics Program Chemical Repository. The FDA-approved anticancer drug set is available from the Developmental Therapeutics Program at https://dtp.cancer.gov/organization/dscb/obtaining/available plates.htm. […] The stock solutions were prepared in dimethyl sulfoxide (DMSO, Sigma-Aldrich, St. Louis, MO, cat. D2650), except for the platinum complexes which were prepared in saline (Quality Biological, Gaithersburg, MD, cat. 114-055-101), at 800-fold the tested concentration and stored at -70 degrees C prior to their use. All drugs and investigational agents were tested over a range starting from a high concentration at or near the clinical Cmax and decreasing in half-log increments. If the clinical Cmax for an agent had not been determined, the highest concentration tested was 10 microM.
Cell Culture. All cells were maintained in an incubator at 37 degrees C and 5% CO2 with 95% humidity. The PDC lines were cultured according to standard operating procedures established by the NCI PDMR. Briefly, all PDCs were thawed and cultured in Matrigel-coated flasks prepared with a working solution of 1X Ham's F-12 nutrient mix, without supplementation (Invitrogen, Waltham, MA, cat. 11765054), 100 U/mL penicillin-streptomycin (Invitrogen, cat. 15140122), and 2.5% Matrigel (Corning Inc., Corning, NY, cat. 354248) for the first three passages. The 947758-054-R-J2-PDC line was cultured in 6B/Colon 1A media, which includes advanced DMEM/F-12 (Thermo Fisher Scientific, cat. 12634028), 10 mM HEPES (Thermo Fisher Scientific, cat. 15630080), 1X GlutaMAX supplement (Thermo Fisher Scientific, cat. 35050061), 0.1 mg/mL primocin (InvivoGen, cat. ant-pm-2), 10% defined fetal bovine serum, heat inactivated (HyClone Laboratories Inc., cat. SH30070.03HI), 1.25 mM N-Acetyl-L-cysteine (Sigma-Aldrich, cat. A9165), 10 mM nicotinamide (Sigma-Aldrich, cat. N0636), 1X B-27 supplement (Thermo Fisher Scientific, cat. 17504044), 1X N-2 supplement (Thermo Fisher Scientific, cat. 17502048), and 10 microM Y-27632 dihydrochloride (Tocris Bioscience, cat. 1254). The 876862-298-R-J1-PDC was cultured in 6E media, which includes all 6B/Colon 1A media components plus 50% L-WRN conditioned media (ATCC, cat. CRL-3276), 50 ng/mL recombinant human EGF recombinant protein (hEGF; Thermo Fisher Scientific, cat. PHG0311), 10 ng/mL recombinant human fibroblast growth factor 10 (hGFG-10; PeproTech, cat. 100-26), 1 ng/mL recombinant human fibroblast growth factor 2 (hFGF-2; PeproTech, cat. 100-18B), and 1 µM prostaglandin E2 (PGE2; Tocris, cat. 2296). The 227483-062-R1-J1-PDC line was cultured in Panc media, containing all 6E components except hFGF-2, with the addition of 500 nM SB-431542 (Selleckchem, cat. S1067) and 10 nM gastrin (Tocris, cat. 3006). […]
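Further: spheroids exposed to the agents for seven days.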

With `C#Cc1c(F)ccc2cc(O)cc(-c3ncc4c(N5CC6CCC(C5)N6)nc(OCC56CCCN5CC(F)C6)nc4c3F)c12` (configuration not stated), the viability, T/C (compound 0.0316 µM) is 110% and 91.8%; the viability, T/C (compound 0.1 µM) is 86.9% and 94%; the viability, T/C (compound 0.316 µM) was 79.3% and 89.4%; the viability, T/C (compound 1 µM) is 89.2% and 83.5%; the viability, T/C (compound 3.16 µM) was 109% and 96.9%; the viability, T/C (compound 10 µM) is 99.2% and 101%. Further, where the note is “curve of compound”, the half-maximal inhibitory concentration (IC50) is greater than 10 µM.
For `C=C(F)C(=O)N1CCN(c2nc(OCC3CCCN3C)nc3c2CCN(c2cccc4cccc(Cl)c24)C3)CC1CC#N` (configuration not stated), the viability, T/C is, setting by setting: (compound 0.0316 µM) 62.4% and 97.8%; (compound 0.1 µM) 68.8% and 78%; (compound 0.316 µM) 85% and 95.9%; (compound 1 µM) 51.9% and 90.4%; (compound 3.16 µM) 11.4% and 28.5%; (compound 10 µM) 1.93% and 0.2%. In addition, the IC50 (curve of compound) is 1.1 µM and 2.12 µM.
In the case of `C=CC(=O)N1CCN(c2nc(=O)n(-c3c(C)ccnc3C(C)C)c3nc(-c4c(O)cccc4F)c(F)cc23)C(C)C1` (configuration not stated), the viability, T/C was 99.5% and 84.9% (compound 0.0316 µM); 91.5% and 76.2% (compound 0.1 µM); 101% and 112% (compound 0.316 µM); 89.7% and 114% (compound 1 µM); 116% and 106% (compound 3.16 µM); 80.5% and 108% (compound 10 µM). The IC50 (curve of compound) is greater than 10 µM.
In the case of `C=CC(=O)Nc1cc(Nc2nccc(-c3cn(C)c4ccccc34)n2)c(OC)cc1N(C)CCN(C)C`, the viability, T/C runs as follows: (compound 0.000949 µM) 98.3% and 114%; (compound 0.003 µM) 88.5% and 85.6%; (compound 0.00949 µM) 96.7% and 88.3%; (compound 0.03 µM) 101% and 96.3%; (compound 0.0949 µM) 93.5% and 100%; (compound 0.3 µM) 80.8% and 90%. Moreover, where the note is “curve of compound”, the IC50 was greater than 0.3 µM.
`CC(C)CC(NC(=O)C(Cc1ccccc1)NC(=O)c1cnccn1)B(O)O` (configuration not stated): the viability, T/C (compound 0.000949 µM) is 26.8% and 12.1%; the viability, T/C (compound 0.003 µM) was 0.63% and 0.17%; the viability, T/C (compound 0.00949 µM) is 0.23% and 0.71%; the viability, T/C (compound 0.03 µM) was 0.23% and 2.41%; the viability, T/C (compound 0.0949 µM) was 0.31% and 0.16%; the viability, T/C (compound 0.3 µM) is 2.09% and 0.42%. Where the note is “curve of compound”, the IC50 is less than 0.000949 µM.
In the case of `CC(CO)NC(=O)c1cc(-c2ccc(Cl)cc2)nn(-c2cnn(C)c2)c1=O` (configuration not stated), the viability, T/C (compound 0.0316 µM) is 97.5% and 93.1%; the viability, T/C (compound 0.1 µM) is 73.8% and 82.1%; the viability, T/C (compound 0.316 µM) is 100% and 94.2%; the viability, T/C (compound 1 µM) is 94.3% and 99.3%; the viability, T/C (compound 3.16 µM) is 87.3% and 77.8%; the viability, T/C (compound 10 µM) was 51.8% and 58.1%. Where the note is “curve of compound”, the IC50 is greater than 10 µM.
As to `CC(Nc1ccc2c(c1)OCCn1cc(N3C(=O)OCC3C(F)F)nc1-2)C(N)=O` (configuration not stated), the viability, T/C is, setting by setting: (compound 0.0316 µM) 67.3% and 70.1%; (compound 0.1 µM) 65.7% and 55.4%; (compound 0.316 µM) 53.8% and 52.7%; (compound 1 µM) 39.9% and 37.6%; (compound 3.16 µM) 32.3% and 33.9%; (compound 10 µM) 23.5% and 19.5%. In addition, for the setting “curve of compound”, the concentration for half-maximal inhibition (IC50) was 0.46 µM and 0.305 µM.
Regarding `CCCS(=O)(=O)Nc1ccc(F)c(C(=O)c2c[nH]c3ncc(-c4ccc(Cl)cc4)cc23)c1F`, the viability, T/C runs as follows: (compound 0.0316 µM) 90.6% and 79.6%; (compound 0.1 µM) 77.4% and 59.3%; (compound 0.316 µM) 99.6% and 96.6%; (compound 1 µM) 92.4% and 73.8%; (compound 3.16 µM) 85.8% and 83.2%; (compound 10 µM) 11.3% and 6.41%. Under “curve of compound”, the concentration for half-maximal inhibition (IC50) was 5.5 µM and 4.99 µM.
Consider `CCN1CCN(Cc2ccc(Nc3ncc(F)c(-c4cc(F)c5nc(C)n(C(C)C)c5c4)n3)nc2)CC1`, for which the viability, T/C is 82.6% and 81.5% (compound 0.00316 µM); 82.6% and 92.4% (compound 0.01 µM); 83.9% and 84.2% (compound 0.0316 µM); 69.7% and 84.1% (compound 0.1 µM); 66.8% and 75.8% (compound 0.316 µM); 50.5% and 56.2% (compound 1 µM). Under “curve of compound”, the IC50 was greater than 1 µM.
Take `CCc1c2c(nc3ccc(O)cc13)-c1cc3c(c(=O)n1C2)COC(=O)[C@]3(O)CC`: the viability, T/C by setting is: (compound 0.00316 µM) 38.3% and 25.9%; (compound 0.01 µM) 16.9% and 13.7%; (compound 0.0316 µM) 15.6% and 16.5%; (compound 0.1 µM) 21.3% and 17.4%; (compound 0.316 µM) 16.8% and 17.7%; (compound 1 µM) 4.59% and 4.21%. Moreover, the IC50 (curve of compound) was less than 0.00316 µM.
Turning to `CN1CCN(c2cc(C(=O)Nc3cc4cc(-c5cnn(C)c5)ccc4cn3)ccn2)CC1`, the viability, T/C is, setting by setting: (compound 0.0316 µM) 102% [middle of 12 runs]; (compound 0.1 µM) 97.7% [middle of 12 runs]; (compound 0.316 µM) 24.3% [middle of 12 runs]; (compound 1 µM) 1.19% [middle of 12 runs]; (compound 3.16 µM) 0.58% [middle of 11 runs]; (compound 10 µM) 0.34% [middle of 10 runs]. The IC50 (compound alone, run of 08/14/2023) is 212 nM [middle of 9 runs].
For `CNC(=O)c1ccc(Nc2nc(OC3CCCC3)c3c(-c4ccc5nc(C)oc5c4)c[nH]c3n2)c(OC)c1`, the viability, T/C runs as follows: (compound 0.0316 µM) 105% [middle of 12 runs]; (compound 0.1 µM) 63% [middle of 12 runs]; (compound 0.316 µM) 54.3% [middle of 12 runs]; (compound 1 µM) 36.4% [middle of 11 runs]; (compound 3.16 µM) 42.1% [middle of 12 runs].
Consider `COC1C=CCC(C)C(C)S(=O)(=O)NC(=O)c2ccc3c(c2)N(CC2CCC21)CC1(CCCc2cc(Cl)ccc21)CO3` (configuration not stated), for which the viability, T/C reads like this: (compound 0.0316 µM) 86.6% and 107%; (compound 0.1 µM) 85.4% and 73.3%; (compound 0.316 µM) 86.8% and 70.1%; (compound 1 µM) 61.2% and 61.9%; (compound 3.16 µM) 14.6% and 10.7%; (compound 10 µM) 1.35% and 1.31%. Also, the IC50 (curve of compound) was 1.33 µM and 0.861 µM.
Regarding `COc1c(OCCCN2CCOCC2)ccc2c3n(c(=NC(=O)c4cnc(N)nc4)nc12)CCN3`, the viability, T/C is, setting by setting: (compound 0.00316 µM) 73.2% and 68.2%; (compound 0.01 µM) 69.9% and 67.5%; (compound 0.0316 µM) 45.8% and 39.1%; (compound 0.1 µM) 19.1% and 13.5%; (compound 0.316 µM) 3.62% and 2.73%; (compound 1 µM) 1.16% and 0.46%. Besides, the IC50 (curve of compound) was 0.027 µM and 0.0203 µM.
With `Cn1ncnc1[C@H]1c2n[nH]c(=O)c3cc(F)cc(c23)N[C@@H]1c1ccc(F)cc1`, the viability, T/C was 87.6% and 89% (compound 0.000316 µM); 88.1% and 94.1% (compound 0.001 µM); 91.8% and 78.8% (compound 0.00316 µM); 80.4% and 83% (compound 0.01 µM); 60.7% and 65.9% (compound 0.0316 µM); 57% and 63.1% (compound 0.1 µM). In addition, the IC50 (curve of compound) is greater than 0.1 µM.
As for `NC(=O)C(=Cn1cnc(-c2cc(C(F)(F)F)cc(C(F)(F)F)c2)n1)c1cncnc1`, the viability, T/C (compound 0.00949 µM) was 79.6% and 73.7%; the viability, T/C (compound 0.03 µM) is 67.2% and 49.7%; the viability, T/C (compound 0.0949 µM) was 46.6% and 36.5%; the viability, T/C (compound 0.3 µM) is 14.8% and 11.8%; the viability, T/C (compound 0.949 µM) is 6.97% and 7.35%; the viability, T/C (compound 3 µM) was 4.72% and 4.92%. Besides, for the setting “curve of compound”, the 50% inhibitory concentration (IC50) was 0.0739 µM and 0.0347 µM.
Consider `Nc1ccccc1NC(=O)c1ccc(CNC(=O)OCc2cccnc2)cc1`, for which the viability, T/C is 105% and 91.2% (compound 0.0316 µM); 98.8% and 108% (compound 0.1 µM); 71.4% and 47.5% (compound 0.316 µM); 40.7% and 27% (compound 1 µM); 6.65% and 4.95% (compound 3.16 µM); 0.46% and 0.13% (compound 10 µM). Besides, the IC50 (curve of compound) is 0.674 µM and 0.305 µM.
